In this experiment the target is T1, BChE from equine serum (Equus caballus, UniProt P81908).
T1 construct: BChE from equine serum (Sigma); purchased Sigma; host or cells: equine serum
Nature of the experiment: biochemical. Conditions: eqBChE 0.22 U/mL, Tris-HCl pH 8.0, 20 min preincubation at 37 °C, butyrylthiocholine iodide 0.5 mM, read at 412 nm. The method, then:
Selected hits were obtained from NCI and they were provided as dry powders in variable quantities (5–10 mg). […] Subsequently, they were diluted to the required concentrations with Tris buffer pH 8.0 for the assay. Enzymatic inhibition assays were performed on BChE from equine serum (Sigma), according to the spectrophotometric Ellman's method. The experiment was performed in 48-well plates in a final volume of 100 µL. Each well contained 0.22 U/mL eqBChE dissolved in Tris–HCl buffer, pH 8.0. They were preincubated for 20 min at different compound concentrations at 37 °C. Then 0.5 mM butyrylthiocholine iodide (Sigma) and 0.35 mM 5,5′-dithiobis -2-nitrobenzoico (DTNB; Sigma) were added. Colour development was measured spectrophotometrically at 412 nm using microplate reader (BioTek ELx800) at a rate of one measurement per minute over 15 min period. […] All samples were assayed in at least duplicate measurements. In general, the amount of DMSO was kept below 1% in the assay. IC50 values were determined graphically from inhibition curves using Graph Pad prism version 6, Graph Pad Software, Inc..

Where two headings read alike, the source gives them in different places.

Three compounds from PMC6711031, “Discovery of new butyrylcholinesterase inhibitors via structure-based virtual screening” (Journal of Enzyme Inhibition and Medicinal Chemistry, 2019) can be followed below.

T1 sequence (P81908 whole entry): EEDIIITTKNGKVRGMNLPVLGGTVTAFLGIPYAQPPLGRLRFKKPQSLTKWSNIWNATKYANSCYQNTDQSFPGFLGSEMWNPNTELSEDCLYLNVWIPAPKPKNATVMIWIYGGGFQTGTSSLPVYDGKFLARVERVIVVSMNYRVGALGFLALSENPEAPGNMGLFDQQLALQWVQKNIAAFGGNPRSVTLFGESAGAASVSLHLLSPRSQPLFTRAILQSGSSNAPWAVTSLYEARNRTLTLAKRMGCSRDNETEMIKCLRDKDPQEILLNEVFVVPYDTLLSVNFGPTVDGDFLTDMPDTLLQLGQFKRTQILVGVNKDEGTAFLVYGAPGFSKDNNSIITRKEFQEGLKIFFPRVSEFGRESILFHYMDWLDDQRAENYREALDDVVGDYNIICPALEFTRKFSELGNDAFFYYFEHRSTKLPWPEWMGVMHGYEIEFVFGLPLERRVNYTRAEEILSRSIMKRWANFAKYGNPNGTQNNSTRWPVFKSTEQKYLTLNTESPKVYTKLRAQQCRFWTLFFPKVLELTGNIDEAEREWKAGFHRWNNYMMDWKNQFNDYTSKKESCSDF

Turning to `O=C1CC2COc3ccc(OCCN4CCCC4)cc3C2=NN1c1ccccc1` (stereo not drawn) [Compound 4, 2-phenyl-9–(2-(pyrrolidin-1-yl)ethoxy)-4a,5-dihydro-2H-chromeno[4,3-c]pyridazin-3(4H)-one], where the note is “read-out: IC50 value”, the half-maximal inhibitory concentration (IC50) was determined as 8.3 ± 0.07 µM. In the case of `OC(c1ccccc1)C(NCCNCc1ccccc1)c1ccccc1` (stereo not drawn) [Compound 12, 2-[2-(benzylamino)ethylamino]-1,2-diphenylethanol], the IC50 (read-out: IC50 value) was found to be 22.2 ± 0.12 µM. On to `NCCC1CCc2[nH]c3ccccc3c2C1` (stereo not drawn) [Compound 26, 2–(2,3,4,9-tetrahydro-1H-carbazol-3-yl)ethanamine], for which the IC50 (IC50 value) stood at 39.7 ± 0.16 µM.
